We go through one compound from patent US20220260557A1, “METHODS FOR DEPLETION AND ENRICHMENT” (priority 2018, published 2022).

The structures appear in SMILES notation. Several values for one entry are separate records, joined by “and”; a condition that tells them apart may be missing. Equal values may be shown once.

The nature of data set [1]: Serum biotin levels after 20 mg biotin ingestion, free biotin ELISA. Particulars: per volunteer. As for the experimental part:
Baseline serum samples were obtained from 5 apparently healthy adult volunteers (4 male, 1 female) by antecubital venous blood draw in BD brand Vacutainer™ 10 mL red top tubes. […] Blood was allowed to clot for 1 hour at RT and centrifuged at 2,000 rpm for 15 min in a Beckman Allegra 6R tabletop centrifuge. For each time point, serum samples from each volunteer was pooled, mixed for 15 min at RT, aliquoted into 1.2 mL aliquots in 2 mL cryo-vials, and frozen at −80° C.
Samples above the kit's measuring range were diluted with the kit's sample dilution buffer.

The next data set is described as follows: clinical. To be noted: human, in vivo, serum biotin level, LC-MS/MS.

As to `O=C(O)CCCC[C@@H]1SC[C@@H]2NC(=O)N[C@@H]21` [Biotin], in data set [1] (1 hr after 20 mg biotin ingestion), the “Biotin Concentration 1-hr” value came to 440 ng/mL. Besides, the “Biotin Concentration 3-hr” value in data set [1] (3 hr after 20 mg biotin ingestion) was 221 ng/mL and 289 ng/mL and 184 ng/mL and 113 ng/mL and 183 ng/mL. Moreover, in data set [1] (6 hr after 20 mg biotin ingestion), the “Biotin Concentration 6-hr” value was 60 ng/mL and 65 ng/mL and 76 ng/mL. In addition, the “Biotin Concentration 8-hr” value in data set [1] (8 hr after 20 mg biotin ingestion) is 48 ng/mL and 64 ng/mL and 65 ng/mL. Moreover, in data set [1] (24 hr after 20 mg biotin ingestion), the “Biotin Concentration 24-hr” value is 29 ng/mL and 26 ng/mL and 32 ng/mL and 24 ng/mL. Also, the “Biotin Concentration 0-hr” value in data set [1] (baseline before 20 mg biotin ingestion) was 1.1 ng/mL and 0.1 ng/mL and 0.3 ng/mL and 0.4 ng/mL (2×). The concentration at 1 h in data set [1] (both, human, in vivo, 20 mg, Biotin Concentration 1-hr, 1 hr after 20 mg biotin ingestion) amounted to 531 ng/mL. The concentration at 6 h in data set [1] (both, human, in vivo, 20 mg, Biotin Concentration 6-hr, 6 hr after 20 mg biotin ingestion) is 107 ng/mL; in the data set “clinical” (20 mg, all 5 volunteers) it was 17 to 35 ng/mL; in the data set “clinical” (200 mg, 200 mg dose (so in the source)), 95 to 347 ng/mL. Also, the concentration at 8 h lay within 60 to 107 ng/mL in data set [1] (both, human, in vivo, 20 mg, Biotin Concentration 8-hr, 8 hr after 20 mg biotin ingestion) and 16 to 28 ng/mL in “clinical” (20 mg, 8 hours, 4 out of 5 volunteers >15 ng/mL). The compound further gave a concentration at 24 h in data set [1] (both, human, in vivo, 20 mg, Biotin Concentration 24-hr, 24 hr after 20 mg biotin ingestion) of 24 to 32 ng/mL.
